# “And” between values parts separate entries of the source, which are not always exact repeats. Equal values may be shown once. Read-outs that look alike come from different tables or passages of the source.
# How the values were obtained:
# RFK module of CaFADS [1] = target: T1, RFK module of CaFADS (Corynebacterium ammoniagenes, UniProt Q59263, L183M); test: Steady-state RFK activity (HPLC quantification of flavins); type: biochemical; conditions: for type of inhibition of the RFK activity: Dixon, Cornish-Bowden and Lineweaver-Burk plots
# T1 construct: a truncated CaFADS variant consisting in the isolated C-terminal RFK module; made in house; host or cells: E. coli BL21(DE3)
# Method: In all cases, reactions were initiated by addition of the enzyme to a final concentration of ≈40 nM, which was followed by 1 min of incubation, and the reactions were stopped by boiling the samples at 100 °C for 5 min as previously described, [20]. The flavin composition of the supernatant was analyzed using an Alliance HPLC system (Waters) equipped with a 2707 autosampler and an HSST3 column (4.6 × 50 mm, […]; Waters) preceded by a precolumn (4.6 × 20 mm, […]; Waters) as previously described, [20]. […] All the experiments were carried out in triplicate.
# Additionally, Dixon plots (1/(v 0/[e]) vs [I]) and Cornish-Bowden representations ([S]/(v 0/[e]) vs [I]) were used to reveal the type of inhibition, [43].
# RFK module of CaFADS [2] = target: T1, RFK module of CaFADS; test: Isothermal titration calorimetry of binary and ternary interactions; type: binding
# Method: Isothermal titration calorimetry (ITC) experiments were performed to elucidate the order in which ligands bind to the enzyme, as well as the binding inhibition effects from the thermodynamic point of view. Experiments were carried out in an AutoITC200 (MicroCal) that was thermostated at 25 °C. […] Titrations with FLV ligands of mixtures that contained the enzyme prebound with the ANP ligand were also carried out, as well as ANP titrations of mixtures of the enzyme saturated with FLV ligands. In these experiments, the titration was performed by stepwise injecting the titrating ligand. Up to 19 injections of 2 μL each were added to the calorimetric sample cell and mixed at a stirring speed of 1000 r.p.m. Ligands and protein were dissolved in 20 mM PIPES, pH 7.0, either in the presence or absence of 0.8 mM MgCl2, and degassed prior to titration. The association constant (K a), the enthalpy change (ΔH) and the binding stoichiometry (N) were obtained through a nonlinear least squares regression of the data using a homemade model for one or two independent binding sites, which was implemented in Origin 7.0 (OriginLab) as previously described, [20]. The entropic contribution (-TΔS), the Gibbs free energy (ΔG) and the dissociation constant (K d) were obtained through essential thermodynamic equations.
# Experiments were performed in triplicate.
# [3] = Flavin photobleaching decay in the stopped-flow equipment; type: physicochemical; conditions: for photobleaching rate: flavin fluorescence decay during stopped-flow measurements, 25 °C, 0.8 mM MgCl2, pH 7.0; for rate of slow linear fluorescence decay (photobleaching range): flavin mixed with the RFK module without ANP, stopped-flow
# From the text: Due to the deterioration that flavins undergo when they are exposed to light, we also evaluated the FLV photobleaching decay during measurements.
# [4] = initial mixture RFK:FMN, 0.0 mM MgCl2
# [5] = initial mixture RFK:FMN, 0.8 mM MgCl2
# [6] = initial mixture RFK:RF, 0.0 mM MgCl2
# [7] = initial mixture RFK:RF, 0.8 mM MgCl2
# [8] = initial mixture RFK, 0.0 mM MgCl2
# [9] = initial mixture RFK, 0.8 mM MgCl2
# [10] = apparent, ATP varied, ~5 µM RF, [ADP] 20 μM
# [11] = apparent, ATP varied, ~5 µM RF, [ADP] 50 μM
# [12] = apparent, ATP varied, ~5 µM RF, [ADP] 90 μM
# [13] = apparent, ATP varied, ~5 µM RF, [ADP] 170 μM
# [14] = initial mixture RFK:ADP, 0.0 mM MgCl2
# [15] = initial mixture RFK:ADP, 0.8 mM MgCl2
# [16] = initial mixture RFK:ATP, 0.0 mM MgCl2
# [17] = initial mixture RFK:ATP, 0.8 mM MgCl2
# [18] = apparent, RF varied, saturating ATP, [FMN] 1 μM
# [19] = apparent, RF varied, saturating ATP, [FMN] 2 μM
# [20] = apparent, RF varied, saturating ATP, [FMN] 3 μM
# [21] = apparent, RF varied, saturating ATP, [FMN] 5 μM
# T1 sequence (Q59263 183-338 L183M): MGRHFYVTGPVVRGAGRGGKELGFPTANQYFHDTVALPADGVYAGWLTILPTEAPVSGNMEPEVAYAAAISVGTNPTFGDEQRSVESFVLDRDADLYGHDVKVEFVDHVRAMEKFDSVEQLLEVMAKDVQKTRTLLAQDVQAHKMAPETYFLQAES
compound,measurement,setting,value
Nc1ncnc2c1ncn2[C@@H]1O[C@H](COP(=O)(O)OP(=O)(O)O)[C@@H](O)[C@H]1O [ADP],type of inhibition of the RFK activity,RFK module of CaFADS [1],competitive inhibitor
same,Ki,"RFK module of CaFADS [1]; global fit of Lineweaver-Burk equation, competitive inhibition, ~5 µM RF, read-out: KiADP",17 ± 3.3 µM
same,K m/K i ratio,"RFK module of CaFADS [1]; product inhibitor potency, KmRF/KiFMN and KmATP/KiADP",≈ 2.4
same,-TΔS,RFK module of CaFADS [2]; [4],9.3 kcal/mol
same,ΔG,RFK module of CaFADS [2]; [4],-6.6 kcal/mol
same,ΔH,RFK module of CaFADS [2]; [4],-15.9 kcal/mol
same,Kd,"RFK module of CaFADS [2]; initial mixture RFK:FMN, 0.0 mM MgCl2, read-out: Kd",14.8 µM
same,-TΔS,RFK module of CaFADS [2]; [5],1.8 kcal/mol
same,ΔG,RFK module of CaFADS [2]; [5],-8.5 kcal/mol
same,ΔH,RFK module of CaFADS [2]; [5],-10.3 kcal/mol
same,Kd,"RFK module of CaFADS [2]; initial mixture RFK:FMN, 0.8 mM MgCl2, read-out: Kd",0.6 µM
same,-TΔS,RFK module of CaFADS [2]; [6],25.4 kcal/mol
same,ΔG,RFK module of CaFADS [2]; [6],-6.5 kcal/mol
same,ΔH,RFK module of CaFADS [2]; [6],-31.8 kcal/mol
same,Kd,"RFK module of CaFADS [2]; initial mixture RFK:RF, 0.0 mM MgCl2, read-out: Kd",17.1 µM
same,-TΔS,RFK module of CaFADS [2]; [7],5.2 kcal/mol
same,ΔG,RFK module of CaFADS [2]; [7],-8.2 kcal/mol
same,ΔH,RFK module of CaFADS [2]; [7],-13.4 kcal/mol
same,Kd,"RFK module of CaFADS [2]; initial mixture RFK:RF, 0.8 mM MgCl2, read-out: Kd",1 µM
same,-TΔS,RFK module of CaFADS [2]; [8],0.6 kcal/mol
same,ΔG,RFK module of CaFADS [2]; [8],-5.8 kcal/mol
same,ΔH,RFK module of CaFADS [2]; [8],-6.4 kcal/mol
same,Kd,"RFK module of CaFADS [2]; initial mixture RFK, 0.0 mM MgCl2, 20 mM PIPES, pH 7.0, 25 °C, read-out: Kd",51.4 µM
same,-TΔS,RFK module of CaFADS [2]; [9],3.5 kcal/mol
same,ΔG,RFK module of CaFADS [2]; [9],-6.4 kcal/mol
same,ΔH,RFK module of CaFADS [2]; [9],-9.8 kcal/mol
same,Kd,"RFK module of CaFADS [2]; initial mixture RFK, 0.8 mM MgCl2, 20 mM PIPES, pH 7.0, 25 °C, read-out: Kd",22.1 µM
Nc1ncnc2c1ncn2[C@@H]1O[C@H](COP(=O)(O)OP(=O)(O)OP(=O)(O)O)[C@@H](O)[C@H]1O [ATP],KmATP,"RFK module of CaFADS [1]; apparent, ATP varied, ~5 µM RF, [ADP] 0 μM, 25 °C, 0.8 mM MgCl2, pH 7.0",60 ± 11 µM
same,k cat,"RFK module of CaFADS [1]; apparent, ATP varied, ~5 µM RF, [ADP] 0 μM, 25 °C, 20 mM PIPES, 0.8 mM MgCl2, pH 7.0",2.67 ± 0.167 s⁻¹
same,KmATP,RFK module of CaFADS [1]; [10],110 ± 20 µM
same,k cat,RFK module of CaFADS [1]; [10],2.67 ± 0.167 s⁻¹
same,KmATP,RFK module of CaFADS [1]; [11],140 ± 20 µM
same,k cat,RFK module of CaFADS [1]; [11],2.33 ± 0.167 s⁻¹
same,KmATP,RFK module of CaFADS [1]; [12],260 ± 20 µM
same,k cat,RFK module of CaFADS [1]; [12],2.83 ± 0.167 s⁻¹
same,KmATP,RFK module of CaFADS [1]; [13],700 ± 270 µM
same,k cat,RFK module of CaFADS [1]; [13],2.83 ± 1 s⁻¹
same,k cat,"RFK module of CaFADS [1]; global fit of Lineweaver-Burk equation, competitive inhibition by ADP, ATP varied, ~5 µM RF",2.17 ± 0.5 s⁻¹
same,KmATP,"RFK module of CaFADS [1]; global fit of Lineweaver-Burk equation, competitive inhibition by ADP, ~5 µM RF",40 ± 20 µM and 40 ± 12 µM
same,-TΔS,RFK module of CaFADS [2]; [4],9.3 kcal/mol
same,ΔH,RFK module of CaFADS [2]; [4],-17.9 kcal/mol
same,-TΔS,RFK module of CaFADS [2]; [5],9.3 kcal/mol
same,ΔH,RFK module of CaFADS [2]; [5],-19.5 kcal/mol
same,-TΔS,RFK module of CaFADS [2]; [6],66.6 kcal/mol
same,ΔH,RFK module of CaFADS [2]; [6],-72.5 kcal/mol
same,-TΔS,RFK module of CaFADS [2]; [8],-1.0 kcal/mol
same,ΔH,RFK module of CaFADS [2]; [8],-5.5 kcal/mol
same,-TΔS,RFK module of CaFADS [2]; [9],-0.6 kcal/mol
same,ΔG,RFK module of CaFADS [2]; [9],-6.1 kcal/mol
same,ΔH,RFK module of CaFADS [2]; [9],-5.6 kcal/mol
"Cc1cc2nc3c(=O)[nH]c(=O)nc-3n(C[C@H](O)[C@H](O)[C@H](O)COP(=O)(O)O)c2cc1C [FMN, flavin mononucleotide]",type of inhibition of the RFK activity,RFK module of CaFADS [1],uncompetitive inhibitor
same,photobleaching rate,[3],0.0041 ± 0.00018 min⁻¹
same,rate of slow linear fluorescence decay (photobleaching range),[3],0.0041 ± 0.00024 min⁻¹
same,interaction with the RFK module on titration with the individual ligand,"RFK module of CaFADS [2]; ITC thermograms, free RFK module, titrated at different temperatures",does not interact or interacts with undetectable ΔCp
same,-TΔS,RFK module of CaFADS [2]; [14],10.6 kcal/mol
same,ΔG,RFK module of CaFADS [2]; [14],-7.1 kcal/mol
same,ΔH,RFK module of CaFADS [2]; [14],-17.7 kcal/mol
same,-TΔS,RFK module of CaFADS [2]; [15],-1.9 kcal/mol
same,ΔG,RFK module of CaFADS [2]; [15],-8.4 kcal/mol
same,ΔH,RFK module of CaFADS [2]; [15],-6.4 kcal/mol
same,-TΔS,RFK module of CaFADS [2]; [16],15.4 kcal/mol
same,ΔG,RFK module of CaFADS [2]; [16],-6.3 kcal/mol
same,ΔH,RFK module of CaFADS [2]; [16],-21.7 kcal/mol
same,-TΔS,RFK module of CaFADS [2]; [17],-0.2 kcal/mol
same,ΔG,RFK module of CaFADS [2]; [17],-7.1 kcal/mol
same,ΔH,RFK module of CaFADS [2]; [17],-6.9 kcal/mol
"Cc1cc2nc3c(=O)[nH]c(=O)nc-3n(C[C@H](O)[C@H](O)[C@H](O)CO)c2cc1C [RF, riboflavin]",Ki,RFK module of CaFADS [1],1.9 ± 0.2 µM
same,KmRF,"RFK module of CaFADS [1]; apparent, RF varied, saturating ATP, [FMN] 0 μM",10 ± 2 µM
same,k cat,"RFK module of CaFADS [1]; apparent, RF varied, saturating ATP, [FMN] 0 μM, substrate inhibition model, 25 °C, 0.8 mM MgCl2, pH 7.0",7.33 ± 0.833 s⁻¹
same,KmRF,RFK module of CaFADS [1]; [18],5.0 ± 1.1 µM
same,k cat,RFK module of CaFADS [1]; [18],4.67 ± 0.667 s⁻¹
same,KmRF,RFK module of CaFADS [1]; [19],7.7 ± 1.4 µM
same,k cat,RFK module of CaFADS [1]; [19],4.5 ± 0.833 s⁻¹
same,KmRF,RFK module of CaFADS [1]; [20],3.6 ± 0.9 µM
same,k cat,RFK module of CaFADS [1]; [20],2.33 ± 0.5 s⁻¹
same,KmRF,RFK module of CaFADS [1]; [21],5.5 ± 2.1 µM
same,k cat,RFK module of CaFADS [1]; [21],2 ± 0.667 s⁻¹
same,k cat,"RFK module of CaFADS [1]; global fit of Lineweaver-Burk equation, uncompetitive inhibition by FMN, RF varied, saturating ATP",5.33 ± 0.667 s⁻¹ and 5.33 ± 0.5 s⁻¹
same,KmRF,"RFK module of CaFADS [1]; global fit of Lineweaver-Burk equation, uncompetitive inhibition by FMN, saturating ATP",6.9 ± 0.4 µM
same,photobleaching rate,[3],0.0046 ± 0.00018 min⁻¹
same,rate of slow linear fluorescence decay (photobleaching range),[3],0.0045 ± 0.00012 min⁻¹
same,Kd,"RFK module of CaFADS [2]; Kd, initial mixture RFK:ADP, 0.0 mM MgCl2",14.5 µM
same,Kd,"RFK module of CaFADS [2]; Kd, initial mixture RFK:ADP, 0.8 mM MgCl2",2.3 µM
same,Kd,"RFK module of CaFADS [2]; Kd, initial mixture RFK, 0.8 mM MgCl2, 20 mM PIPES, pH 7.0, 25 °C",15.2 µM
same,-TΔS,RFK module of CaFADS [2]; [14],67.7 kcal/mol
same,ΔG,RFK module of CaFADS [2]; [14],-6.6 kcal/mol
same,ΔH,RFK module of CaFADS [2]; [14],-74.3 kcal/mol
same,-TΔS,RFK module of CaFADS [2]; [15],11.5 kcal/mol
same,ΔG,RFK module of CaFADS [2]; [15],-7.6 kcal/mol
same,ΔH,RFK module of CaFADS [2]; [15],-19.2 kcal/mol
same,Kd,RFK module of CaFADS [2]; [16],does not bind
same,-TΔS,RFK module of CaFADS [2]; [8],-0.9 kcal/mol
same,ΔG,RFK module of CaFADS [2]; [8],-6.9 kcal/mol
same,ΔH,RFK module of CaFADS [2]; [8],-5.9 kcal/mol
same,-TΔS,RFK module of CaFADS [2]; [9],4.1 kcal/mol
same,ΔG,RFK module of CaFADS [2]; [9],-6.6 kcal/mol
same,ΔH,RFK module of CaFADS [2]; [9],-10.6 kcal/mol
